Broadly, the IC50 is the concentration at which inhibition is half-maximal. The EC50 is the concentration at which the effect is half-maximal.

One assay deals with GST-PPARG-LBD (Homo sapiens (Human), UniProt P37231). The assay is described as follows: Lanthascreen PPARG competitive binding assay (Invitrogen, TR-FRET). To be noted: Lanthascreen competitive binding; NA = not active; inc = incomplete curve; read-out: IC50 (nM) Lantha. The method in brief:
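TR-FRET competitive binding of GST-PPARG-LBD with 5 nM Tb-GST-antibody and 5 nM Fluormone Pan-PPAR Green tracer, in TR-FRET buffer C. Compound serially diluted from 10 μM, 2 h dark incubation, in triplicate. Readout is 520/490 nm emission ratio (340 nm excitation), expressed as fold change over 2% DMSO control.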
In general terms: TR-FRET usually uses a lanthanide donor and a delayed reading to cut background.

The target in assay [1] is Gal-4-PPAR (human PPAR LBD fused to GAL4 DNA-binding domain) (Homo sapiens (Human), UniProt P37231). Kind of assay: GAL4-PPARG LBD / UAS-luciferase transactivation assay in HEK 293T cells. Type of assay: cell-based.
Chain of Gal-4-PPAR (human PPAR LBD fused to GAL4 DNA-binding domain) (P37231 238-503): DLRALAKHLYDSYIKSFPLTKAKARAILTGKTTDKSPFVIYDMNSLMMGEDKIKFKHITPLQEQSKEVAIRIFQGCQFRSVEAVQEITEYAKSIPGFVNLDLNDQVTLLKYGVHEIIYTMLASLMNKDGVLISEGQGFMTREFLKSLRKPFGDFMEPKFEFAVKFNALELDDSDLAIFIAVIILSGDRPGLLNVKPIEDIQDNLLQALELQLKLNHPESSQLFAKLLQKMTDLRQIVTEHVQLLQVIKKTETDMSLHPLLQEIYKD
The mark [2] stands for this setting: GAL4 transactivation, HEK 293T cells; NA = not active; read-out: EC50 (nM) GAL4.
Setting [3] is: HEK-293T, 18 h; read-out: % transactivation at 10 μM (GAL4).
Setting [4] is: HEK-293T, 18 h, read-out: % transactivation at 10 μM (GAL4).

Like-named read-outs stand apart in the source and are kept apart here.

Chain of GST-PPARG-LBD (P37231 238-503): as above

Take `Cc1c(C)n(Cc2ccc(-c3ccccc3C(=O)O)cc2)c2ccc(C(=O)N[C@@H](C)c3c(Cl)cccc3Cl)cc12` [Example 142, (S)-4′-((5-((1-(2,6-dichlorophenyl)ethyl)carbamoyl)-2,3-dimethyl-1H-indol-1-yl)methyl)-[1,1′-biphenyl]-2-carboxylic acid]: at GST-PPARG-LBD, the 50% inhibitory concentration (IC50) was found to be 51 nM. Also, the EC50 in assay [1] (setting [2]) came to 6060 nM. In addition, the activation at 10 µM in assay [1] (setting [3]) was found to be 15%.

Turning to `Cc1c(C)n(Cc2ccc(-c3ccccc3C(=O)O)cc2)c2ccc(C(=O)N[C@@H](C)c3cccc4c3OCO4)cc12` [Example 143, (S)-4′-((5-((1-(benzo[d][1,3]dioxol-4-yl)ethyl)carbamoyl)-2,3-dimethyl-1H-indol-1-yl)methyl)-[1,1′-biphenyl]-2-carboxylic acid], the IC50 at GST-PPARG-LBD was 10 nM. Also, the concentration giving a half-maximal response (EC50) in assay [1] (setting [2]) was 189 nM. For the same compound, the activation at 10 µM in assay [1] (setting [3]) was 45%.

For `Cc1c(C)n(Cc2ccc(-c3ccccc3C(=O)O)cc2)c2ccc(C(=O)N[C@@H](C)c3ccccn3)cc12` [Example 144, (S)-4′-((2,3-dimethyl-5-((1-(pyridin-2-yl)ethyl)carbamoyl)-1H-indol-1-yl)methyl)-[1,1′-biphenyl]-2-carboxylic acid], the half-maximal inhibitory concentration (IC50) at GST-PPARG-LBD was determined as 2 nM. The EC50 in assay [1] (setting [2]) worked out at 13 nM. The activation at 10 µM in assay [1] (setting [3]) stood at 25%.

Turning to `Cc1c(F)cccc1[C@H](C)NC(=O)c1ccc2c(c1)c(C)c(C)n2Cc1ccc(-c2ccccc2C(=O)O)cc1` [Example 145, (S)-4′-((5-((1-(3-fluoro-2-methylphenyl)ethyl)carbamoyl)-2,3-dimethyl-1H-indol-1-yl)methyl)-[1,1′-biphenyl]-2-carboxylic acid], the IC50 at GST-PPARG-LBD is < 1 nM. In addition, the EC50 in assay [1] (setting [2]) was found to be 70 nM. For the same compound, in assay [1] (setting [3]), the activation at 10 µM is 35%.

`COc1cc(F)cc([C@H](C)NC(=O)c2ccc3c(c2)c(C)c(C)n3Cc2ccc(-c3ccccc3C(=O)O)cc2)c1` [Example 146, (S)-4′-((5-((1-(3-fluoro-5-methoxyphenyl)ethyl)carbamoyl)-2,3-dimethyl-1H-indol-1-yl)methyl)-[1,1′-biphenyl]-2-carboxylic acid]: the IC50 at GST-PPARG-LBD stood at 12 nM. In addition, the EC50 in assay [1] (setting [2]) came to 455 nM. For the same compound, in assay [1] (setting [3]), the activation at 10 µM came to 30%.

Regarding `COc1cc(OC)cc([C@H](C)NC(=O)c2ccc3c(c2)c(C)c(C)n3Cc2ccc(-c3ccccc3C(=O)O)cc2)c1` [Example 147, (S)-4′-((5-((1-(3,5-dimethoxyphenyl)ethyl)carbamoyl)-2,3-dimethyl-1H-indol-1-yl)methyl)-[1,1′-biphenyl]-2-carboxylic acid], the IC50 on GST-PPARG-LBD turned out to be 20 nM. Further, the EC50 in assay [1] (setting [2]) was determined as 9280 nM. The activation at 10 µM in assay [1] (setting [3]) stood at 20%.

Take `Cc1c(C)n(Cc2ccc(-c3ccccc3C(=O)O)cc2)c2ccc(C(=O)N[C@@H](C)c3ccncc3Cl)cc12` [Example 148, (S)-4′-((5-((1-(3-chloropyridin-4-yl)ethyl)carbamoyl)-2,3-dimethyl-1H-indol-1-yl)methyl)-[1,1′-biphenyl]-2-carboxylic acid]: the IC50 on GST-PPARG-LBD was 41 nM. The EC50 in assay [1] (setting [2]) is 7540 nM. The activation at 10 µM in assay [1] (setting [3]) was found to be 35%.

In the case of `Cc1c(C)n(Cc2ccc(-c3ccccc3C(=O)O)cc2)c2ccc(C(=O)N[C@@H](C)c3ccnc4ccccc34)cc12` [Example 149, (S)-4′-((2,3-dimethyl-5-((1-(quinolin-4-yl)ethyl)carbamoyl)-1H-indol-1-yl)methyl)-[1,1′-biphenyl]-2-carboxylic acid], the half-maximal inhibitory concentration (IC50) on GST-PPARG-LBD came to 6 nM. For the same compound, in assay [1] (setting [2]), the concentration for a half-maximal effect (EC50) was 1680 nM. Further, the activation at 10 µM in assay [1] (setting [3]) is 15%.

With `Cc1c(C)n(Cc2ccc(-c3ccccc3C(=O)O)cc2)c2ccc(C(=O)N[C@@H](C)c3ccc(F)cc3F)cc12` [Example 150, (S)-4′-((5-((1-(2,4-difluorophenyl)ethyl)carbamoyl)-2,3-dimethyl-1H-indol-1-yl)methyl)-[1,1′-biphenyl]-2-carboxylic acid], the IC50 on GST-PPARG-LBD came to 5 nM. Besides, the EC50 in assay [1] (setting [2]) is 180 nM. Also, the activation at 10 µM in assay [1] (setting [3]) is 30%.

Consider `CCOc1cccc([C@H](C)NC(=O)c2ccc3c(c2)c(C)c(C)n3Cc2ccc(-c3ccccc3C(=O)O)cc2)c1` [Example 151, (S)-4′-((5-((1-(3-ethoxyphenyl)ethyl)carbamoyl)-2,3-dimethyl-1H-indol-1-yl)methyl)-[1,1′-biphenyl]-2-carboxylic acid], for which the IC50 at GST-PPARG-LBD is 21 nM. Also, the 50% effective concentration (EC50) in assay [1] (setting [2]) came out at 618 nM. Also, the activation at 10 µM in assay [1] (setting [4]) was 25%.

For `Cc1c(C)n(Cc2ccc(-c3ccccc3C(=O)O)cc2)c2ccc(C(=O)N[C@@H](C)c3cccc4ccccc34)cc12` [Example 152, (S)-4′-((2,3-dimethyl-5-((1-(naphthalen-1-yl)ethyl)carbamoyl)-1H-indol-1-yl)methyl)-[1,1′-biphenyl]-2-carboxylic acid], the half-inhibitory concentration (IC50) at GST-PPARG-LBD was found to be 256 nM. In assay [1] (setting [2]), the concentration giving a half-maximal response (EC50) turned out to be 766 nM. Besides, in assay [1] (setting [3]), the activation at 10 µM amounted to 17%.

Take `Cc1c(C)n(Cc2ccc(-c3ccccc3C(=O)O)cc2)c2ccc(C(=O)N[C@@H](C)c3ccc(OC(F)(F)F)cc3)cc12` [Example 153, (S)-4′-((2,3-dimethyl-5-((1-(4-(trifluoromethoxy)phenyl)ethyl)carbamoyl)-1H-indol-1-yl)methyl)-[1,1′-biphenyl]-2-carboxylic acid]: on GST-PPARG-LBD, the concentration for half-maximal inhibition (IC50) is 28 nM. Further, the EC50 in assay [1] (setting [2]) worked out at 4160 nM. In addition, the activation at 10 µM in assay [1] (setting [3]) was determined as 25%.

With `Cc1c(C)n(Cc2ccc(-c3ccccc3C(=O)O)cc2)c2ccc(C(=O)N[C@@H](C)c3ccc(C(F)(F)F)cc3)cc12` [Example 154, (S)-4′-((2,3-dimethyl-5-((1-(4-(trifluoromethyl)phenyl)ethyl)carbamoyl)-1H-indol-1-yl)methyl)-[1,1′-biphenyl]-2-carboxylic acid], the 50% inhibitory concentration (IC50) at GST-PPARG-LBD is 61 nM. Moreover, the EC50 in assay [1] (setting [2]) turned out to be 522 nM. Besides, the activation at 10 µM in assay [1] (setting [3]) was determined as 5%.

In the case of `Cc1c(C)n(Cc2ccc(-c3ccccc3C(=O)O)cc2)c2ccc(C(=O)N[C@@H](C)c3cccc(F)c3)cc12` [Example 158, (S)-4′-((5-((1-(3-fluorophenyl)ethyl)carbamoyl)-2,3-dimethyl-1H-indol-1-yl)methyl)-[1,1′-biphenyl]-2-carboxylic acid], the 50% inhibitory concentration (IC50) on GST-PPARG-LBD is 8 nM. The EC50 in assay [1] (setting [2]) is 259 nM. Moreover, the activation at 10 µM in assay [1] (setting [4]) was determined as 40%.

On to `Cc1c(C)n(Cc2ccc(-c3ccccc3C(=O)O)cc2)c2ccc(C(=O)N[C@@H](C)c3ccccc3Cl)cc12` [Example 159, (S)-4′-((5-((1-(2-chlorophenyl)ethyl)carbamoyl)-2,3-dimethyl-1H-indol-1-yl)methyl)-[1,1′-biphenyl]-2-carboxylic acid], for which, at GST-PPARG-LBD, the IC50 was < 1 nM. Also, the EC50 in assay [1] (setting [2]) amounted to 152 nM. Besides, the activation at 10 µM in assay [1] (setting [4]) was 30%.

As for `Cc1c(C)n(Cc2ccc(-c3ccccc3C(=O)O)cc2)c2ccc(C(=O)N[C@@H](C)c3ccccc3F)cc12` [Example 160, (S)-4′-((5-((1-(2-fluorophenyl)ethyl)carbamoyl)-2,3-dimethyl-1H-indol-1-yl)methyl)-[1,1′-biphenyl]-2-carboxylic acid], the 50% inhibitory concentration (IC50) on GST-PPARG-LBD worked out at 7 nM. Also, in assay [1] (setting [2]), the EC50 was 383 nM. For the same compound, the activation at 10 µM in assay [1] (setting [4]) turned out to be 35%.

As for `COc1cccc([C@@H](C)NC(=O)c2ccc3c(c2)c(C)c(C)n3Cc2ccc(-c3ccccc3C(=O)O)cc2)c1` [Example 161, (R)-4′-((5-((1-(3-methoxyphenyl)ethyl)carbamoyl)-2,3-dimethyl-1H-indol-1-yl)methyl)-[1,1′-biphenyl]-2-carboxylic acid], the IC50 at GST-PPARG-LBD came out at 2 nM. Further, in assay [1] (setting [2]), the EC50 is 55 nM. Further, in assay [1] (setting [3]), the activation at 10 µM came to 30%.

Regarding `Cc1c(C)n(Cc2ccc(-c3ccccc3C(=O)O)cc2)c2ccc(C(=O)NCc3ccc(F)cc3F)cc12` [Example 164, 4′-((5-((2,4-difluorobenzyl)carbamoyl)-2,3-dimethyl-1H-indol-1-yl)methyl)-[1,1′-biphenyl]-2-carboxylic acid], on GST-PPARG-LBD, the IC50 came out at 19 nM. The half-maximal effective concentration (EC50) in assay [1] (setting [2]) is 987 nM. Moreover, the activation at 10 µM in assay [1] (setting [4]) amounted to 30%.

As for `Cc1c(C)n(Cc2ccc(-c3ccccc3C(=O)O)cc2)c2ccc(C(=O)NCc3ccc(Cl)cc3C(F)(F)F)cc12` [Example 165, 4′-((5-((4-chloro-2-(trifluoromethyl)benzyl)carbamoyl)-2,3-dimethyl-1H-indol-1-yl)methyl)-[1,1′-biphenyl]-2-carboxylic acid], at GST-PPARG-LBD, the IC50 came to 2 nM. Moreover, the EC50 in assay [1] (setting [2]) turned out to be 507 nM. Moreover, the activation at 10 µM in assay [1] (setting [3]) is 15%.

Consider `Cc1c(C)n(Cc2ccc(-c3ccccc3C(=O)O)cc2)c2ccc(C(=O)N[C@H](C)c3ccncc3)cc12` [Example 169, (R)-4′-((2,3-dimethyl-5-((1-(pyridin-4-yl)ethyl)carbamoyl)-1H-indol-1-yl)methyl)-[1,1′-biphenyl]-2-carboxylic acid], for which the IC50 on GST-PPARG-LBD is 11 nM. Moreover, in assay [1] (setting [2]), the EC50 was 608 nM. The activation at 10 µM in assay [1] (setting [3]) worked out at 20%.

As for `Cc1c(C)n(Cc2ccc(-c3ccccc3C(=O)O)cc2)c2ccc(C(=O)N[C@@H](C)c3cccc(F)c3Cl)cc12` [Example 170, (S)-4′-((5-((1-(2-chloro-3-fluorophenyl)ethyl)carbamoyl)-2,3-dimethyl-1H-indol-1-yl)methyl)-[1,1′-biphenyl]-2-carboxylic acid], the half-maximal inhibitory concentration (IC50) at GST-PPARG-LBD was 4 nM. The concentration for a half-maximal effect (EC50) in assay [1] (setting [2]) was determined as 114 nM. In addition, in assay [1] (setting [4]), the activation at 10 µM is 50%.

Regarding `Cc1c(C)n(Cc2ccc(-c3ccccc3C(=O)O)cc2)c2ccc(C(=O)N[C@H](C)c3cccc(Cl)c3Cl)cc12` [Example 171, (R)-4′-((5-((1-(2,3-dichlorophenyl)ethyl)carbamoyl)-2,3-dimethyl-1H-indol-1-yl)methyl)-[1,1′-biphenyl]-2-carboxylic acid], the IC50 at GST-PPARG-LBD amounted to 5 nM. Besides, the EC50 in assay [1] (setting [2]) worked out at 388 nM. Further, the activation at 10 µM in assay [1] (setting [4]) stood at 10%.

(Values after patent US8957093B2, “N-biphenylmethylindole modulators of PPARG” (The Scripps Research Institute, priority 2011, dated 2015).)
